Laboratory results: patent US20100249238A1, “PHARMACEUTICAL COMPOSITIONS COMPRISING SEMICARBAZONES AND THIOSEMICARBAZONES AND METHOD FOR TREATING INFLAMMATORY, PAINFUL AND FEBRILE CONDITIONS AND PREVENTING SIGNS AND SYMPTOMS OF INFLAMMATION” (priority 2007, published 2010)
Like-named read-outs stand apart in the source and are kept apart here. Marks after values point to notes of the source that are not given here.

Assays:
[1] = test system: nociceptive response induced by formaldehyde; conditions: compared with first phase; Blackburn-Munro et al., Eur. J. Pharmacol. 445, 231, 2002; cited from earlier work
[2] = oral subacute toxicity, OECD 407 repeated dose 28 days, body weight; format: in vivo, rats; conditions: for Final body mass / Initial body mass: BS, mean ± sem
Procedure: (§1) Toxicological studies were based on established protocols (OECD Test Guidelines) internationally recognized as a reference standard tool for chemical tests.
The OECD 407 guideline—Repeated-dose Procedure for Assessing Oral Subacute Toxicity (OECD, 1995) was used. The test substance was administered orally daily (from 11:00 am to 1:00 pm) during 28 days. The animals were observed daily during the whole period. Doses of 100, 300, 500 mg/kg for BS were used.
(§2) Laboratory analyses for acute (macroscopic and microscopic analyses) and subacute (macroscopic and microscopic analyses, biochemical and hematologic analysis) toxicity tests were carried out.

[3] = test system: motor activity; test: motor activity of mice in a rotarod; format: in vivo; conditions: Swiss male mice; 10, 25 or 50 mg/kg intraperitoneal (30 min) or 100 or 200 mg/kg oral (60 min)
Procedure: The effect of BS on motor activity of Swiss male mice (20-30 g) was evaluated in order to investigate whether inhibition of nociceptive behavior in animals treated with BS would be a result of a central depressive effect. Their motor activity was evaluated in a rotarod. A day before the experiment, the mice were trained in the apparatus. During the experiment, they were put in a rotarod (14 rpm) and the time they stayed in the apparatus was determined. One minute was the cut-off time. After basal measurements, the animals were treated with BS (10, 25 or 50 mg/kg, intraperitoneal or 100 or 200 mg/kg, oral). Dimethyl sulfoxide (DMSO) 25%+Tween 80 10% in saline was the vehicle used for intraperitoneal administration and carboxymethylcellulose 0.5%, a pharmaceutically acceptable excipient, was used for oral administration. Thirty or 60 min after intraperitoneal or oral administration, respectively, the animals were evaluated again in the rotarod apparatus.

[4] = test system: mechanical allodynia induced by carrageenan; test: mechanical allodynia induced by carrageenan in rats (nylon filament); format: in vivo; conditions: 50 mg/kg i.p. -30 min, 100 or 200 mg/kg oral -60 min
Procedure: (§3) In the model of thermal allodynia, the latency for paw removal after application of a thermal stimulus is assessed in the Hargreaves apparatus (model 7370, Ugo Basile, Italy). In the model of mechanical allodynia, the frequency of paw withdrawal to a series of ten touches with a nylon filament to the plantar surface of the right hind paw is determined. Dimethyl sulfoxide (DMSO) 25%+Tween 80 10% in saline was the vehicle used for intraperitoneal administration and carboxymethylcellulose 0.5%, a pharmaceutically acceptable excipient, was used for oral administration. Thirty or 60 min after intraperitoneal or oral administration, respectively, carrageenan (1%, 50 μl, suspended in saline) was injected into the plantar surface of the right hindpaw and the latency for paw removal after application of a thermal stimulus or the frequency of paw withdrawal to the mechanical stimulus was evaluated as described.

[5] = test system: cell migration induced by carrageenan; test: cell migration induced by intraperitoneal injection of carrageenan in rats; format: in vivo; conditions: 200 mg/kg oral -60 min
Procedure: In this model, carrageenan (500 μg, 1 ml, suspended in saline) is injected into the peritoneal cavity of rats. After three hours, the animals are euthanized and 10 ml phosphate buffer are injected into the peritoneal cavity. The peritoneal lavage is removed and the centrifuged. The supernatant is removed and the pellet is suspended in a 2 ml of phosphate buffer. An aliquot of 20 μl is added to a 400 μl Turk's solution. The number of cells is determined by microscopy.
Carboxymethylcellulose 0.5%, a pharmaceutically acceptable excipient, was used for oral administration. BS (200 mg/kg, oral, −60 min) inhibited cell migration induced by carrageenan.

[6] = test system: rats; test: oral acute toxicity, OECD 420 fixed-dose procedure; format: in vivo
Procedure: as §1
Only one dose of substances (300 mg/kg or 2000 mg/kg) was administered orally in rats. A careful observation of the rats was made 30 minutes later and repeated hourly up to 12 h. […] After that, the animals were euthanised and submitted to macroscopic and microscopic necropsy.
as §2

[7] = test system: nociceptive response induced by heat; test: nociceptive response induced by heat in the hot plate model; format: in vivo; conditions: mice; 54° C.; 10, 25 or 50 mg/kg i.p. -30 min; 100 or 200 mg/kg oral -60 min
Procedure: In this model, the mice were exposed to a heat metal surface (54° C.) and the latency for licking the paws or jumping off the plate was determined. Dimethyl sulfoxide (DMSO) 25%+Tween 80 10% in saline was the vehicle used for intraperitoneal administration and carboxymethylcellulose 0.5%, a pharmaceutically acceptable excipient, was used for oral administration. Thirty or 60 min after intraperitoneal or oral administration, respectively, the mice were exposed to the hot plate and the latency for displaying the nociceptive behavior was determined as described.

[8] = test system: paw edema induced by carrageenan; test: paw edema induced by carrageenan in rats; format: in vivo; conditions: 50 mg/kg i.p. -30 min or 200 mg/kg oral -60 min
Procedure: The paw edema was assessed using a pletismometer (model 7140, Ugo Basile, Italy). The basal paw volume was determined before any treatment and the edema was induced by intraplantar injection of carrageenan into the right hindpaw (1%, 50 μl, suspended in saline). Dimethyl sulfoxide (DMSO) 25%+Tween 80 10% in saline was the vehicle used for intraperitoneal administration and carboxymethylcellulose 0.5%, a pharmaceutically acceptable excipient, was used for oral administration. Thirty or 60 min after intraperitoneal or oral administration, respectively, carrageenan (1%, 50 μl, suspended in saline) was injected and the paw edema was evaluated as described.

[9] = test system: nociceptive response induced by formaldehyde; test: nociceptive response induced by formaldehyde in mice; format: in vivo
Procedure: In the nociceptive response induced by formaldehyde (0.92%, 20 μL), the inflammatory stimulus is injected subcutaneously into the dorsum of the right hind paw of male Swiss mice. The time the animal spent licking its injected paw was determined from 0 to 5 min (first phase) and from 15 to 30 min (second phase) after formaldehyde injection. Dimethyl sulfoxide (DMSO) 25%+Tween 80 10% in saline was the vehicle used for intraperitoneal administration and carboxymethylcellulose 0.5%, a pharmaceutically acceptable excipient, was used for oral administration. Thirty or 60 min after intraperitoneal or oral administration, respectively, formaldehyde was injected and the nociceptive behavior evaluated as described.

[10] = test system: febrile response induced by endotoxin of E. coli; test: febrile response induced by bacterial endotoxin in rats; format: in vivo; conditions: 200 mg/kg oral -60 min
Procedure: In this model, endotoxin of E. coli (50 μg/kg) is injected intravenously in rats and the colonic temperature is determined during 6 h.
Carboxymethylcellulose 0.5%, a pharmaceutically acceptable excipient, was used for oral administration. BS (200 mg/kg, oral, −60 min) inhibited the febrile response induced by endotoxin.

[11] = test system: fibrovascular tissue formation induced by cotton; test: fibrovascular tissue formation induced by subcutaneous cotton implant; format: in vivo, mice; conditions: 200 mg/kg per day, per os, 7 days; cotton pellet
Procedure: In the model of fibrovascular tissue formation, a cotton pellet (10 mg) is subcutaneously implanted in the back of mice. After seven days, the mice are euthanized and the cotton pellet involved plus the surrounding fibrovascular tissue is removed and its mass determined. Carboxymethylcellulose 0.5%, a pharmaceutically acceptable excipient, was used for oral administration. BS (200 mg/kg·day, oral) was administered during seven days. Twenty-four hours after the last administration, the animals were euthanised and the mass of the cotton pellet plus the surrounding fibrovascular tissue was determined as described.

[12] = test system: thermal allodynia induced by carrageenan; test: thermal allodynia induced by carrageenan in rats (Hargreaves apparatus); format: in vivo; conditions: 50 mg/kg i.p. -30 min, 100 or 200 mg/kg oral -60 min
Procedure: as §3

[13] = females, Satellite group, n = 5

NC(=O)N1c2ccccc2C=Cc2ccccc21 [carbamazepine]
second phase of the nociceptive response induced by formaldehyde [1]: inhibit more effectively the second phase

O=C1NC(=O)C(c2ccccc2)(c2ccccc2)N1 [phenyloin]
second phase of the nociceptive response induced by formaldehyde [1]: inhibit more effectively the second phase

Nc1nnc(-c2cccc(Cl)c2Cl)c(N)n1 [lamotrigine]
second phase of the nociceptive response induced by formaldehyde [1]: inhibit more effectively the second phase

NC(=O)NN=Cc1ccccc1 [BS, benzaldehyde semicarbazone]
Final body mass [2, 13]: 197.27 ± 14.44^AB
Initial body mass [2, 13]: 198.10 ± 15.06^A
Final body mass ([2]; females, dose 100, 28 days, n = 5): 230.30 ± 15.42^A
Initial body mass ([2]; females, dose 100, n = 5): 207.60 ± 12.62^A
Final body mass ([2]; females, dose 300, 28 days, n = 5): 208.38 ± 24.28^AB
Initial body mass ([2]; females, dose 300, n = 5): 192.30 ± 13.34^A
Final body mass ([2]; females, dose 500, 28 days, n = 5): 170.00 ± 17.22^B
Initial body mass ([2]; females, dose 500, n = 5): 196.60 ± 8.20^A
Final body mass ([2]; males, Satellite group, death of an animal during treatment): 222.57 ± 29.34^B*
Initial body mass ([2]; males, Satellite group, n = 5): 197.00 ± 4.51^A
Final body mass ([2]; males, dose 100, 28 days, n = 5): 340.20 ± 50.91^A
Initial body mass ([2]; males, dose 100, n = 5): 240.87 ± 20.07^A
Final body mass ([2]; males, dose 300, 28 days, n = 5): 258.53 ± 25.76^B
Initial body mass ([2]; males, dose 300, n = 5): 192.50 ± 8.32^A
Final body mass ([2]; males, dose 500, 28 days, n = 5): 240.00 ± 46.65^B
Initial body mass ([2]; males, dose 500, n = 5): 225.30 ± 34.72^A
body weight gain ([2]; rats, higher doses, oral daily 28 days): reduced body weight gain
motor activity (time stayed in the rotarod) [3]: did not alter the motor activity
mechanical allodynia induced by carrageenan [4]: inhibited
cell migration induced by carrageenan [5]: inhibited
Observed signs: general activity score (normal 4) ([6]; 300 mg/kg, 30' - 9 h): General activity (3),
Observed signs: grooming score (normal 0) ([6]; 300 mg/kg, 30' - 9 h): grooming (1)
Observed signs ([6]; 300 mg/kg, 9 h - 14th day): No toxicity signs
Observed signs: ataxia score (normal 0) ([6]; 2000 mg/kg, 30' - 12 h): 4
Observed signs: cage corner score (normal 0) ([6]; 2000 mg/kg, 30' - 12 h): 1
Observed signs: piloerection score (normal 0) ([6]; 2000 mg/kg, 30' - 12 h): piloerection (1),
Observed signs: prostration score (normal 0) ([6]; 2000 mg/kg, 30' - 12 h): prostration (3)
Observed signs ([6]; 2000 mg/kg, from the 2nd day): No toxicity signs
category in the Globally Harmonized System for the Classification and Labeling of Chemicals ([6]; from a death at the highest dose (2.000 mg/kg) in the acute toxicity test): 5
signs in the acute toxicity test ([6]; rats, 300 mg/kg oral single dose, reversible after few hours): reduction of motor activity and grooming
reversibility of signs of toxicity ([6]; rats, 2000 mg/kg oral single dose): second day
T/M = number of rats treated/number of deaths ([6]; single oral dose 300 mg/kg): 5/0
T/M = number of rats treated/number of deaths ([6]; single oral dose 2000 mg/kg): 5/1*
antinociceptive effect in the hot plate model [7]: did not induce an antinociceptive effect
paw edema induced by carrageenan [8]: inhibited
first phase of the nociceptive response induced by formaldehyde ([9]; 50 mg/kg intraperitoneal, only this dose, 0 to 5 min): inhibited
second phase of the nociceptive response induced by formaldehyde ([9]; 10, 25 or 50 mg/kg i.p. or 100 or 200 mg/kg oral, 15 to 30 min): markedly inhibited
febrile response induced by endotoxin [10]: inhibited
fibrovascular tissue formation [11]: inhibited
thermal allodynia induced by carrageenan [12]: inhibited
